Test results: US9133167B2, “Antibacterial quinoline derivatives” (JANSSEN PHARMACEUTICA NV, priority 2012, dated 2015)
≈ marks a conversion by molar mass, not a printed value.

What was measured:
[1] = test system: Mycobacterium smegmatis (ATCC607); experiment: In-vitro anti-bacterial activity against strain M. smegmatis ATCC607 (Alamar Blue growth inhibition); format: cell-based; conditions: 90% inhibitory concentration for bacterial growth, 48 hours at 37° C.; for IC90: Mycolicibacterium smegmatis, read-out: IC90 (μg/ml) MSM 607
Protocol: D.1. In-Vitro Method for Testing Compounds for Anti-Bacterial Activity Against Strain M. Smegmatis ATCC607.
Flat-bottom, sterile 96-well plastic microtiter plates were filled with 180 μl of sterile deionized water, supplemented with 0.25% BSA. Subsequently, stock solutions (7.8× final test concentration) of compounds were added in 45 μl volumes to a series of duplicate wells in column 2 so as to allow evaluation of their effects on bacterial growth. Serial five-fold dilutions (45 μl in 180 μl) were made directly in the microtiter plates from column 2 to 11 using a customised robot system (Zymark Corp., Hopkinton, Mass.). Pipette tips were changed after every 3 dilutions to minimize pipetting errors with high hydrophobic compounds. Untreated control samples with (column 1) and without (column 12) inoculum were included in each microtiter plate. Approximately 250 CFU per well of bacteria inoculum, in a volume of 100 in 2.8× Mueller-Hinton broth medium, was added to the rows A to H, except column 12. The same volume of broth medium without inoculum was added to column 12 in row A to H. The cultures were incubated at 37° C. for 48 hours in a humidified 5% CO2 atmosphere (incubator with open air valve and continuous ventilation). At the end of incubation, two days after inoculation, the bacterial growth was quantitated fluorometrically. Therefore Alamar Blue (10×) was added to all wells in a volume of 20 and plates were incubated for another 2 hours at […]
The fluorescence was read in a computer-controlled fluorometer (Cytofluor, Biosearch) at an excitation wavelength of 530 nm and an emission wavelength of 590 nm (gain 30). The percentage growth inhibition achieved by the compounds was calculated according to standard methods and expressed as IC90 […] which defines the 90% inhibitory concentration for bacterial growth.

[2] = test system: Staphylococcus aureus (ATCC29213); experiment: Microtitre plate assay, IC90 for bacterial growth, Staphylococcus aureus strain; format: cell-based; conditions: 90% inhibitory concentration for bacterial growth, 24 hours at 37° C.; for IC90: read-out: IC90 (μg/ml) STA B29213
Protocol: D.2. In-Vitro Method for Testing Compounds for Anti-Bacterial Activity Against a Non-Mycobacterial Strain
Preparation of Bacterial Suspensions for Susceptibility Testing:
The bacteria used in this study were grown overnight in flasks containing 100 ml Mueller-Hinton Broth (Becton Dickinson—cat. no. 275730) in sterile de-ionized water, with shaking, at 37° C. Stocks (0.5 ml/tube) were stored at −70° C. until use. Bacteria titrations were performed in microtiter plates to detect the TCID50, in which TCID50 represents the dilution that gives rise to bacterial growth in 50% of inoculated cultures. In general, an inoculum level of approximately 100 TCID50 was used for susceptibility testing.
Anti Bacterial Susceptibility Testing: IC90 Determination
Flat-bottom, sterile 96-well plastic microtiter plates were filled with 180 μl of sterile deionized water, supplemented with 0.25% BSA. Subsequently, stock solutions (7.8× final test concentration) of compounds were added in 45 μl volumes in column 2 Serial five-fold dilutions (45 μl in 180 μl) were made directly in the microtiter plates from column 2 to reach column 11. Untreated control samples with (column 1) and without (column 12) inoculum were included in each microtiter plate. Depending on the bacteria type, approximately 10 to 60 CFU per well of bacteria inoculum (100 TCID50), in a volume of 100 μl in 2.8× Mueller-Hinton broth medium, was added to the rows A to H, except column 12. The same volume of broth medium without inoculum was added to column 12 in row A to H. The cultures were incubated at 37° C. for 24 hours under a normal atmosphere (incubator with open air valve and continuous ventilation). At the end of incubation, one day after inoculation, the bacterial growth was quantitated fluorometrically. Therefore resazurin (0.6 mg/ml) was added in a volume of 20 μl to all wells 3 hours after inoculation, and the plates were re-incubated overnight. A change in colour from blue to pink indicated the growth of bacteria. The fluorescence was read in a computer-controlled fluorometer (Cytofluor Biosearch) at an excitation wavelength of 530 nm and an emission wavelength of 590 nm. The % growth inhibition achieved by the compounds was calculated according to standard methods. The IC90 (expressed in μg/ml) was defined as the 90% inhibitory concentration for bacterial growth. The results are shown in Table 7 for an assay using a Staphylococcus aureus strain.

SMILES	IC90 (μg/ml) MSM 607 [1]	IC90 (μg/ml) STA B29213 [2]	IC90 [1]	IC90 [2]
COc1nc2ccc(Br)cc2cc1C(c1ccc(Cl)cc1)C1(O)CCN(CCc2ccccc2)CC1.O=C(O)/C=C/C(=O)O (stereo not drawn) [Compound 47]	4.49 µg/mL	17.86 µg/mL	–	–
COc1nc2ccc(Cl)cc2cc1C(c1ccc(Br)cc1)C1(O)CCN(Cc2ccccc2)CC1 (stereo not drawn) [Compound 88]	3.16 µg/mL (≈ 5.73 µM)	3.98 µg/mL (≈ 7.21 µM)	–	–
CS(=O)(=O)c1ccc2[nH]c(=O)c(C(c3ccccc3)C3(O)CCNCC3)cc2c1 (stereo not drawn) [Compound 100]	–	–	> 11.3 µg/mL	> 11.3 µg/mL
COc1nc2ccc(-c3cccnc3)cc2cc1C(c1ccc(Cl)cc1)C1(O)CCNCC1.O=C(O)/C=C/C(=O)O (racemic) [Compound 93]	3.05 µg/mL	10.83 µg/mL	–	–
COc1nc2ccc(Br)cc2cc1C(c1ccc(Cl)cc1)C1(O)CCN(Cc2ccccc2)CC1 (stereo not drawn) [Compound 6]	–	–	> 13.9 µg/mL	> 13.9 µg/mL
COc1nc2ccc(-c3cccnc3)cc2cc1C(c1ccc(Cl)cc1)C1(O)CCN(C)CC1 (racemic) [Compound 94]	6.70 µg/mL (≈ 14.1 µM)	14.99 µg/mL (≈ 31.6 µM)	–	–
COc1nc2ccc(-c3cccnc3)cc2cc1C(c1ccccc1Cl)C1(O)CCNCC1.O=C(O)/C=C/C(=O)O (racemic) [Compound 97]	4.08 µg/mL	16.25 µg/mL	–	–
COc1nc2ccc(C(=O)N(C)C)cc2cc1C(c1ccc(Cl)cc1)C1(O)CCN(Cc2ccccc2)CC1 (stereo not drawn) [Compound 108]	>13.67 µg/mL	>13.67 µg/mL	–	–
COc1nc2ccc(Br)cc2cc1C(c1ccccc1Cl)C1(O)CCNCC1.O=C(O)/C=C/C(=O)O (racemic) [Compound 95]	6.06 µg/mL	15.22 µg/mL	–	–
COc1nc2ccc(Br)cc2cc1C(c1ccc(Cl)cc1)C1(O)CCN(Cc2ccccc2C)CC1 (stereo not drawn) [Compound 62]	3.16 µg/mL (≈ 5.58 µM)	15.85 µg/mL (≈ 28 µM)	–	–
COc1nc2ccc(Br)cc2cc1C(c1ccccc1)C1(O)CCN(C)CC1 (stereo not drawn) [Compound 28]	11.09 µg/mL (≈ 25.1 µM)	>27.85 µg/mL	–	–
COc1nc2ccc(Br)cc2cc1C(c1ccc(S(C)(=O)=O)cc1)C1(O)CCNCC1 (stereo not drawn) [Compound 19]	–	–	> 16.1 µg/mL	> 16.1 µg/mL
Cl.N#Cc1ccc(C(c2cc3cc(Br)ccc3[nH]c2=O)C2(O)CCNCC2)cc1 (stereo not drawn) [Compound 103]	>11.93 µg/mL	>11.93 µg/mL	–	–
CCn1c(=O)c(C(c2ccc(Cl)cc2)C2(O)CCNCC2)cc2cc(Br)ccc21.O=C(O)/C=C/C(=O)O (stereo not drawn) [Compound 102]	11.58 µg/mL	14.58 µg/mL	–	–
Cn1c(=O)c(C(c2ccc(Cl)cc2)C2(O)CCN(Cc3ccccc3)CC2)cc2cc(Br)ccc21 (stereo not drawn) [Compound 96]	6.19 µg/mL (≈ 11.2 µM)	13.86 µg/mL (≈ 25.1 µM)	–	–
COc1nc2ccc(Br)cc2cc1C(c1ccc(Cl)cc1)C1(O)CCN(Cc2cccc(C#N)c2)CC1.O=C(O)/C=C/C(=O)O (racemic) [Compound 105]	14.49 µg/mL	14.49 µg/mL	–	–
COc1nc2ccc(S(C)(=O)=O)cc2cc1C(c1ccccc1)C1(O)CCNCC1.O=C(O)/C=C/C(=O)O (racemic) [Compound 99]	>13.31 µg/mL	>13.31 µg/mL	–	–
COc1nc2ccc(Br)cc2cc1C(c1ccc(S(C)(=O)=O)cc1)C1(O)CCN(Cc2ccccc2)CC1 (stereo not drawn) [Compound 20]	–	–	3.76 µg/mL (≈ 6.31 µM)	7.5 µg/mL (≈ 12.6 µM)

SMILES	IC90 (μg/ml) MSM 607 [1]	IC90 (μg/ml) STA B29213 [2]	IC90 [1]	IC90 [2]
COc1nc2ccc(Br)cc2cc1C(c1cccc(Cl)c1)C1(O)CCNCC1.O=C(O)/C=C/C(=O)O (racemic) [Compound 98]	7.83 µg/mL	15.62 µg/mL	–	–
CN(C)c1nc2ccc(Br)cc2cc1C(c1ccc(Cl)cc1)C1(O)CCN(Cc2ccccc2)CC1.O=C(O)/C=C/C(=O)O (stereo not drawn) [Compound 75]	–	34.89 µg/mL	–	–
COc1nc2ccc(-c3ccco3)cc2cc1C(c1ccc(Cl)cc1)C1(O)CCN(Cc2ccccc2)CC1.O=C(O)/C=C/C(=O)O (racemic) [Compound 64]	–	>43.02 µg/mL	–	–
COc1nc2ccc(-c3ccncc3)cc2cc1C(c1ccccc1)C1(O)CCN(Cc2ccccc2)CC1 (racemic) [Compound 31]	–	>32.54 µg/mL	–	–
COc1nc2ccc(Br)cc2cc1C(c1cccc(C)c1)C1(O)CCN(Cc2ccccc2)CC1 (stereo not drawn) [Compound 61]	3.16 µg/mL (≈ 5.95 µM)	15.85 µg/mL (≈ 29.8 µM)	–	–
COc1ccc2nc(OC)c(C(c3ccc(Cl)cc3)C3(O)CCN(Cc4ccccc4)CC3)cc2c1.O=C(O)/C=C/C(=O)O (stereo not drawn) [Compound 81]	–	10.05 µg/mL	–	–
COc1nc2ccc(Cl)cc2cc1C(c1ccccc1)C1(O)CCN(Cc2ccccc2)CC1 (racemic) [Compound 33]	–	14.96 µg/mL (≈ 31.6 µM)	–	–
COc1nc2ccc(Br)cc2cc1C(c1ccccc1F)C1(O)CCN(Cc2ccccc2)CC1 (racemic) [Compound 83]	–	>33.79 µg/mL	–	–
COc1nc2ccc(Br)cc2cc1C(c1cc2ccccc2o1)C1(O)CCN(Cc2ccccc2)CC1.O=C(O)/C=C/C(=O)O (stereo not drawn) [Compound 54]	–	>43.45 µg/mL	–	–
COc1nc2ccc(C(N)=O)cc2cc1C(c1ccc(Cl)cc1)C1(O)CCN(Cc2ccccc2)CC1 (stereo not drawn) [Compound 107]	12.96 µg/mL (≈ 25.1 µM)	>12.96 µg/mL	–	–
COc1nc2ccc(Br)cc2cc1C(c1ccc(Cl)cc1)C1(O)CCN(C2CCN(Cc3ccccc3)CC2)CC1 (stereo not drawn) [Compound 15]	–	–	–	11.3 µg/mL (≈ 17.7 µM)
COc1ccc2nc(OC)c(C(c3ccccc3)C3(O)CCN(Cc4ccccc4)CC3)cc2c1 (racemic) [Compound 34]	–	>29.57 µg/mL	–	–
COc1nc2ccc(Br)cc2cc1C(c1ccc(Cl)cc1)C1(O)CCNCC1 (stereo not drawn) [Compound 14]	–	–	–	11.6 µg/mL (≈ 25.1 µM)
COc1nc2ccc(Br)cc2cc1C(c1ccccc1)C1(O)CCN(C(C)C)CC1 (stereo not drawn) [Compound 30]	–	>29.62 µg/mL	–	–
COc1nc2ccc(Br)cc2cc1C(c1ccc(Cl)c(F)c1)C1(O)CCN(Cc2ccccc2)CC1.O=C(O)/C=C/C(=O)O (stereo not drawn) [Compound 53]	–	>44.89 µg/mL	–	–
COc1nc2ccc(C(C)C)cc2cc1C(c1ccc(Cl)cc1)C1(O)CCN(CCc2ccccc2)CC1.O=C(O)/C=C/C(=O)O (racemic) [Compound 91]	0.63 µg/mL	3.16 µg/mL	–	–
C=Cc1ccc2nc(OC)c(C(c3ccc(Cl)cc3)C3(O)CCN(Cc4ccc(C)cc4)CC3)cc2c1.O=C(O)/C=C/C(=O)O (stereo not drawn) [Compound 73]	–	>41.02 µg/mL	–	–
